Data taken from the supplement of paper PMC10307832.

How the values were obtained:
Assay in all cases: relative viability (nuclei count vs DMSO), 5 days (fraction); higher = more cells survive
[1] = tested on: NCI-H650
Procedure, shortened: (§1)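 Medians of duplicate plates are given as relative viability. That measure is the nuclei count in treated wells divided by the count in vehicle wells. Counts were taken on 4× images of lung cancer cell lines in 1536-well plates, 5 days after pin-tool dosing the day after seeding with one drug alone or a fixed anchor-drug dose plus five library-drug doses (not always all listed) in √10 steps.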

[2] = tested on: NCI-H23
Procedure, shortened: as §1

[3] = tested on: NCI-H1650
Procedure, shortened: as §1

[4] = tested on: LCLC-103H
Procedure, shortened: as §1

[5] = tested on: NCI-H727
Procedure, shortened: as §1

[6] = tested on: PC-3 [JPC-3]
Procedure, shortened: as §1

[7] = tested on: LU99A
Procedure, shortened: as §1

[8] = tested on: NCI-H1563
Procedure, shortened: as §1

[9] = tested on: HCC-44
Procedure, shortened: as §1

[10] = tested on: NCI-H460
Procedure, shortened: as §1

[11] = tested on: 201T
Procedure, shortened: as §1

[12] = tested on: H3255
Procedure, shortened: as §1

[13] = tested on: NCI-H2347
Procedure, shortened: as §1

[14] = tested on: PC-14
Procedure, shortened: as §1

[15] = tested on: A-427
Procedure, shortened: as §1

[16] = tested on: SW 1573
Procedure, shortened: as §1

[17] = tested on: NCI-H838
Procedure, shortened: as §1

[18] = tested on: COR-L23
Procedure, shortened: as §1

[19] = tested on: LCLC-97TM1
Procedure, shortened: as §1

## CC1(C)CCC(c2ccc(Cl)cc2)=C(CN2CCN(c3ccc(C(=O)NS(=O)(=O)c4ccc(N[C@H](CCN5CCOCC5)CSc5ccccc5)c(S(=O)(=O)C(F)(F)F)c4)cc3)CC2)C1 [Navitoclax] + CC(C)C[C@H](NC(=O)[C@H](Cc1ccccc1)NC(=O)c1cnccn1)B(O)O [Bortezomib] (partner 0.002 µM)
[1]; first compound 0.005 µM
  relative viability: 0.742
[1]; first compound 0.01581 µM
  relative viability: 0.959
[1]; first compound 0.05 µM
  relative viability: 0.817
[1]; first compound 0.1581 µM
  relative viability: 0.767
[1]; first compound 0.5 µM
  relative viability: 0.837
[2]; first compound 0.005 µM
  relative viability: 0.894
[2]; first compound 0.01581 µM
  relative viability: 1.3
[2]; first compound 0.05 µM
  relative viability: 1.24
[2]; first compound 0.1581 µM
  relative viability: 1.02
[2]; first compound 0.5 µM
  relative viability: 1.02
[3]; first compound 0.005 µM
  relative viability: 0.183
[3]; first compound 0.01581 µM
  relative viability: 0.213
[3]; first compound 0.05 µM
  relative viability: 0.165
[3]; first compound 0.1581 µM
  relative viability: 0.191
[3]; first compound 0.5 µM
  relative viability: 0.163
[4]; first compound 0.005 µM
  relative viability: 1.13
[4]; first compound 0.01581 µM
  relative viability: 1.25
[4]; first compound 0.05 µM
  relative viability: 1.18
[4]; first compound 0.1581 µM
  relative viability: 1.15
[4]; first compound 0.5 µM
  relative viability: 1.06
[5]; first compound 0.005 µM
  relative viability: 0.898
[5]; first compound 0.01581 µM
  relative viability: 0.888
[5]; first compound 0.1581 µM
  relative viability: 1.05
[5]; first compound 0.5 µM
  relative viability: 0.767
[6]; first compound 0.005 µM
  relative viability: 0.757
[6]; first compound 0.01581 µM
  relative viability: 0.784
[6]; first compound 0.05 µM
  relative viability: 0.732
[6]; first compound 0.1581 µM
  relative viability: 0.874
[6]; first compound 0.5 µM
  relative viability: 0.822
[7]; first compound 0.005 µM
  relative viability: 1.08
[7]; first compound 0.01581 µM
  relative viability: 1.29
[7]; first compound 0.05 µM
  relative viability: 0.857
[7]; first compound 0.1581 µM
  relative viability: 1.15
[7]; first compound 0.5 µM
  relative viability: 1.32
[8]; first compound 0.005 µM
  relative viability: 0.83
[8]; first compound 0.01581 µM
  relative viability: 1
[8]; first compound 0.05 µM
  relative viability: 0.748
[8]; first compound 0.1581 µM
  relative viability: 1.05
[8]; first compound 0.5 µM
  relative viability: 1.24
[9]; first compound 0.005 µM
  relative viability: 0.859
[9]; first compound 0.01581 µM
  relative viability: 0.912
[9]; first compound 0.05 µM
  relative viability: 0.859
[9]; first compound 0.1581 µM
  relative viability: 0.927
[9]; first compound 0.5 µM
  relative viability: 0.882
[10]; first compound 0.005 µM
  relative viability: 1.1
[10]; first compound 0.01581 µM
  relative viability: 1.16
[10]; first compound 0.05 µM
  relative viability: 1.4
[10]; first compound 0.1581 µM
  relative viability: 1.01
[10]; first compound 0.5 µM
  relative viability: 0.983
[11]; first compound 0.005 µM
  relative viability: 1.16
[11]; first compound 0.01581 µM
  relative viability: 1.13
[11]; first compound 0.05 µM
  relative viability: 1
[11]; first compound 0.1581 µM
  relative viability: 1.1
[11]; first compound 0.5 µM
  relative viability: 1.1
[12]; first compound 0.005 µM
  relative viability: 0.849
[12]; first compound 0.01581 µM
  relative viability: 1.09
[12]; first compound 0.05 µM
  relative viability: 0.836
[12]; first compound 0.1581 µM
  relative viability: 0.692
[12]; first compound 0.5 µM
  relative viability: 0.632
[13]; first compound 0.005 µM
  relative viability: 1.71
[13]; first compound 0.05 µM
  relative viability: 0.812
[13]; first compound 0.1581 µM
  relative viability: 1.03
[13]; first compound 0.5 µM
  relative viability: 1.09
[14]; first compound 0.005 µM
  relative viability: 0.876
[14]; first compound 0.01581 µM
  relative viability: 1
[14]; first compound 0.05 µM
  relative viability: 0.934
[14]; first compound 0.1581 µM
  relative viability: 0.865
[14]; first compound 0.5 µM
  relative viability: 0.86
[15]; first compound 0.005 µM
  relative viability: 1.06
[15]; first compound 0.01581 µM
  relative viability: 1.04
[15]; first compound 0.05 µM
  relative viability: 0.819
[15]; first compound 0.1581 µM
  relative viability: 1.02
[15]; first compound 0.5 µM
  relative viability: 0.949
[16]; first compound 0.005 µM
  relative viability: 1.04
[16]; first compound 0.01581 µM
  relative viability: 1.24
[16]; first compound 0.05 µM
  relative viability: 0.895
[16]; first compound 0.1581 µM
  relative viability: 0.796
[16]; first compound 0.5 µM
  relative viability: 1.15
[17]; first compound 0.005 µM
  relative viability: 0.65
[17]; first compound 0.01581 µM
  relative viability: 1.19
[17]; first compound 0.05 µM
  relative viability: 1.17
[17]; first compound 0.1581 µM
  relative viability: 0.75
[17]; first compound 0.5 µM
  relative viability: 0.81
[18]; first compound 0.005 µM
  relative viability: 0.964
[18]; first compound 0.01581 µM
  relative viability: 1.03
[18]; first compound 0.05 µM
  relative viability: 1.15
[18]; first compound 0.1581 µM
  relative viability: 0.929
[18]; first compound 0.5 µM
  relative viability: 0.975
[19]; first compound 0.005 µM
  relative viability: 0.696
[19]; first compound 0.01581 µM
  relative viability: 1.06
[19]; first compound 0.05 µM
  relative viability: 0.583
[19]; first compound 0.1581 µM
  relative viability: 0.6
[19]; first compound 0.5 µM
  relative viability: 0.513
